Laboratory results published in patent publication US20240336566A1, “CRYSTALLINE FORMS OF A COMPOUND FOR THE TARGETED DEGRADATION OF THE ANDROGEN RECEPTOR” (Arvinas Operations, Inc., priority 2023, published 2024).
“Also recorded” adds a separate entry of the source.

Test: Dynamic vapour sorption (DVS) with XRPD of retained solid
Assay type: physicochemical
Experimental: 10-20 mg of sample was placed into a mesh vapour sorption balance pan and loaded into a DVS-1 dynamic vapour sorption balance by Surface Measurement Systems. The sample was subjected to a ramping profile from 40-90% relative humidity (RH) at 10% increments, maintaining the sample at each step until a stable weight had been achieved (dm/dt 0.004%, minimum step length 30 minutes, maximum step length 500 minutes) at 25° C. After completion of the sorption cycle, the sample was dried using the same procedure to 0% RH and then a second sorption cycle back to 40% RH. Two cycles were performed. The weight change during the sorption/desorption cycles were plotted, allowing for the hygroscopic nature of the sample to be determined. XRPD analysis was then carried out on any solid retained.

hygroscopic nature (DVS) (25° C.): hygroscopic
average mass uptake of water (DVS) (at 90% RH, 25° C.): 4.08 wt. %
mass uptake of water (DVS), equivalents (at 90% RH, 25° C.): 1.91 eq.
Compound: COc1cc(O[C@H]2C(C)(C)[C@H](NC(=O)c3ccc(N4CCC(CN5CCN(c6ccc(C(=O)N[C@H]7CCC(=O)NC7=O)c(F)c6)CC5)CC4)cc3)C2(C)C)ccc1C#N [Compound A, 4-(4-((1-(4-(((1R,3R)-3-(4-cyano-3-methoxyphenoxy)-2,2,4,4-tetramethylcyclobutyl)carbamoyl)phenyl)piperidin-4-yl)methyl)piperazin-1-yl)-N—((S)-2,6-dioxopiperidin-3-yl)-2-fluorobenzamide]
form by XRPD post DVS: Crystallization was not observed; also recorded: remained amorphous by XRPD
